In assay [1] the target is T1, Type-1 angiotensin II receptor (Homo sapiens, UniProt P30556).
T1 sequence (P30556 whole entry): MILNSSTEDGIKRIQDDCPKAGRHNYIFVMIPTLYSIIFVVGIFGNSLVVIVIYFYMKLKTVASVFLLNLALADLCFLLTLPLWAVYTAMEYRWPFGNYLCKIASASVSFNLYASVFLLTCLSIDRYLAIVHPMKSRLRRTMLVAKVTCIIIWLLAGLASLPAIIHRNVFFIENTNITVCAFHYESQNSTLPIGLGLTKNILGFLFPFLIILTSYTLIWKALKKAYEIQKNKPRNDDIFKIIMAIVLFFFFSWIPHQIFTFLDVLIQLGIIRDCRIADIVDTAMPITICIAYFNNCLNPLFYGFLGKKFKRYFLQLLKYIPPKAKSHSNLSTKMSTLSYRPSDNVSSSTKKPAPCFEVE
Briefly: antagonism of angiotensin II type 1 receptor – cell-based, uHTS hits, selectivity assay for APJ receptor antagonist project, dose response (AID 463214).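 Note: antagonist potency against angiotensin II stimulated AT1 response.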 The class given is functional.

The next assay concerns the target Beta-galactosidase (Escherichia coli, UniProt Q8VNN2). Kind of assay: PubChem AID 485352. The assay is classed as functional.
Assay [2] concerns the target T2, Low molecular weight phosphotyrosine protein phosphatase (Homo sapiens, UniProt P24666).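 Note: Dose-response confirmation assay measuring inhibition of LMPTP enzyme activity by fluorescence intensity read-out.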
T2 sequence (P24666 whole entry): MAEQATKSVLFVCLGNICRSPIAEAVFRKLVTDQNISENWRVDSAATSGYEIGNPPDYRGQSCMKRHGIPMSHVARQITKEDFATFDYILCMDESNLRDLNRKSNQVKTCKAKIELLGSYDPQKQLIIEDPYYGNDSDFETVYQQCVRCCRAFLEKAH
The class given is functional. Conditions: read-out: IC50_Mean.

The subject of the next assay is Escherichia coli. Briefly: microbe, parasite or virus in culture.
Assay [3] addresses T3, Mitochondrial peptide methionine sulfoxide reductase (Bos taurus, UniProt P54149).
T3 sequence (P54149 whole entry): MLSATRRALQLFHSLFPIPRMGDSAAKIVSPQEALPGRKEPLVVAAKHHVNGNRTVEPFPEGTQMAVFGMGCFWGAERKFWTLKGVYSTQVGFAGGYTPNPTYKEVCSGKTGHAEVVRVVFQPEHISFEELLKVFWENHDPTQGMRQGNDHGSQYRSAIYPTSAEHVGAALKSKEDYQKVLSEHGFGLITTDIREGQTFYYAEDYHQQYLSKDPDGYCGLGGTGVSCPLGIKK
Kind of assay: Absorbance-based biochemical high throughput dose response assay for activators of Methionine sulfoxide reductase A (MsrA). The class given is functional.

Assay [4] is described as follows: Luminescence Cell-Based Dose Confirmation HTS to Identify Activators of 5'UTR Stem-Loop Driven Alpha-Synuclein mRNA Translation in H4 Neuroglioblastoma Cells. [Related pubchem assays: 1829 (Project Summary), 1814 (Primary HTS)]. The assay is classed as functional.
Assay [5] deals with T4, Endoribonuclease toxin MazF (Escherichia coli K-12, UniProt P0AE70).
T4 sequence (P0AE70 whole entry): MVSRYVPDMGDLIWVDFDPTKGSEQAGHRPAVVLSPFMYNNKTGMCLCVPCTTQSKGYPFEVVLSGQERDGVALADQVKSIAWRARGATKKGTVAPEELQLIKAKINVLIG
Briefly: substrate-only fluorescence increase artefacts – biochemical, single-stranded RNase substrate, counter-screen for MazEF activator project, dose response (AID 588502). The assay is classed as functional. On the technique in general: Counterscreens check selectivity or assay interference.

Assay [6] can be described thus: Luminescence Cell-Based Dose Response HTS to Identify Activators of Luciferase Translation or Activity in H4 […] Cells. [Related pubchem assays: 1829 (Project Summary), 1814 (Primary HTS)]. The assay is classed as functional.
Assay [7] concerns the target T5, Rac GTPase-activating protein 1 (Homo sapiens, UniProt Q9H0H5).
T5 sequence (Q9H0H5 whole entry): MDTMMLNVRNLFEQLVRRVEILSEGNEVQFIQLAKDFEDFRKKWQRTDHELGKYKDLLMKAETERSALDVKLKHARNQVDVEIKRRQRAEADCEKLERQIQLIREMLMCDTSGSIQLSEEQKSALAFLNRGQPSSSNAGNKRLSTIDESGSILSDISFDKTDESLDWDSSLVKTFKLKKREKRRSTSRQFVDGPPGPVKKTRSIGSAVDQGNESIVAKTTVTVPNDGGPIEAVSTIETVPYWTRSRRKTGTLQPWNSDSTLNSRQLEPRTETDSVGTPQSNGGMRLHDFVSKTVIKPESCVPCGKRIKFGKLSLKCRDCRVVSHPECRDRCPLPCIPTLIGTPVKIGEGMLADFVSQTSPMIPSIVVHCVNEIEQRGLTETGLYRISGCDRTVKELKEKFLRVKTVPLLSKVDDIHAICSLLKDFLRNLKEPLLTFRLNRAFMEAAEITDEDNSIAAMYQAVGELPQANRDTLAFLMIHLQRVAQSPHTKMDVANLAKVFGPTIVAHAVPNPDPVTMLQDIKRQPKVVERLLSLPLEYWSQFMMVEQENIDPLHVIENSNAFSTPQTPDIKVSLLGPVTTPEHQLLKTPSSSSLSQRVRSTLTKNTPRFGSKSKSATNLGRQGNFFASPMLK
Briefly: blockers of MgcRacGAP-driven Rac1 GTP hydrolysis – biochemical, ADP Hunter fluorescence, primary and confirmatory, confirmation (AID 624330). The assay is classed as functional.

The target of assay [8] is T4, Endoribonuclease toxin MazF. Kind of assay: activation of MazEF endoribonuclease cleavage – biochemical, fluorescence, single-stranded RNA substrate, uHTS hits, dose response (AID 588481). The class given is functional.
A further assay deals with Cytochrome P450 3A4 (Homo sapiens, UniProt P08684).
Chain of Cytochrome P450 3A4 (P08684 whole entry): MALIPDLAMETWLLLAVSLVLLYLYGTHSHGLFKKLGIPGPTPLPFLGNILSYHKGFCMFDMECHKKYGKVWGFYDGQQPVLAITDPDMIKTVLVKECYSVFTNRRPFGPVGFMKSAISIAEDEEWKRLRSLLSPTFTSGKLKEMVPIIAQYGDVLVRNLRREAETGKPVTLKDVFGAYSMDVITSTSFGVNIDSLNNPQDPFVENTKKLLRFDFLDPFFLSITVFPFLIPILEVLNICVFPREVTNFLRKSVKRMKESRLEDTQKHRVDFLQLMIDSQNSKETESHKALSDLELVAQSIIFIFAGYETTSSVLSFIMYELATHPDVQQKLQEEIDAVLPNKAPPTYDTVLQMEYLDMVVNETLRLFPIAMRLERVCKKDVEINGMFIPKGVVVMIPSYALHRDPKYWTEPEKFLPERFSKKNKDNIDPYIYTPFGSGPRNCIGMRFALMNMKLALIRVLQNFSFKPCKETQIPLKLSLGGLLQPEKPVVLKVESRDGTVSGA
In assay [9] the target is T6, Microphthalmia-associated transcription factor (Homo sapiens, UniProt O75030).
T6 sequence (O75030 whole entry): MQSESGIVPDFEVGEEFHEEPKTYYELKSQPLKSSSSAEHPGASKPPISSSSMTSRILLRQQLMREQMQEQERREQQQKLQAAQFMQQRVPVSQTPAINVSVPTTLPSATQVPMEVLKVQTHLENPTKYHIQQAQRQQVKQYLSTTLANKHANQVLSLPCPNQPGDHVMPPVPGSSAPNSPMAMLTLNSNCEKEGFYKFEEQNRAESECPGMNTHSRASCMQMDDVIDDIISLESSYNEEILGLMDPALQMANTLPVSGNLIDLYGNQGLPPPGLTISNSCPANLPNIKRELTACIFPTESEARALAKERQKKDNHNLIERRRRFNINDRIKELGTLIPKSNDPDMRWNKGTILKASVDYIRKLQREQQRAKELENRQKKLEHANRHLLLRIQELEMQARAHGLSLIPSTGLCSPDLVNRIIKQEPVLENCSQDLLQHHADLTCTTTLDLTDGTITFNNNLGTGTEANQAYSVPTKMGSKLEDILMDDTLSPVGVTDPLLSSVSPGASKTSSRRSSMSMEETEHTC
Kind of assay: reducers of TRPM1 reporter luminescence, concentration series – cell-based, SK-MEL-5, cherry-picked, set 3, MITF inhibitor project, dose response (AID 493073).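 Note: SK-MEL-5 melanoma cells with luciferase driven by the MITF target TRPM1 promoter.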 The assay is classed as functional.

Assay [10] concerns the target Dual specificity tyrosine-phosphorylation-regulated kinase 1A (Rattus norvegicus, UniProt Q63470). The assay is classed as biochemical, Homo sapiens.
Another assay deals with H4. Kind of assay: Luminescence Cell-Based Dose Response HTS to Identify Activators of 5'UTR Stem-Loop Driven Prion Protein mRNA Translation in H4 Neuroglioblastoma Cells. [Related pubchem assays: 1829 (Project Summary), 1814 (Primary HTS)]. The assay is classed as functional. To be noted: Homo sapiens.
For assay [11], the target named is T7, Methionyl-tRNA synthetase, putative (Trypanosoma brucei brucei, UniProt Q38C91).
T7 sequence (Q38C91 whole entry): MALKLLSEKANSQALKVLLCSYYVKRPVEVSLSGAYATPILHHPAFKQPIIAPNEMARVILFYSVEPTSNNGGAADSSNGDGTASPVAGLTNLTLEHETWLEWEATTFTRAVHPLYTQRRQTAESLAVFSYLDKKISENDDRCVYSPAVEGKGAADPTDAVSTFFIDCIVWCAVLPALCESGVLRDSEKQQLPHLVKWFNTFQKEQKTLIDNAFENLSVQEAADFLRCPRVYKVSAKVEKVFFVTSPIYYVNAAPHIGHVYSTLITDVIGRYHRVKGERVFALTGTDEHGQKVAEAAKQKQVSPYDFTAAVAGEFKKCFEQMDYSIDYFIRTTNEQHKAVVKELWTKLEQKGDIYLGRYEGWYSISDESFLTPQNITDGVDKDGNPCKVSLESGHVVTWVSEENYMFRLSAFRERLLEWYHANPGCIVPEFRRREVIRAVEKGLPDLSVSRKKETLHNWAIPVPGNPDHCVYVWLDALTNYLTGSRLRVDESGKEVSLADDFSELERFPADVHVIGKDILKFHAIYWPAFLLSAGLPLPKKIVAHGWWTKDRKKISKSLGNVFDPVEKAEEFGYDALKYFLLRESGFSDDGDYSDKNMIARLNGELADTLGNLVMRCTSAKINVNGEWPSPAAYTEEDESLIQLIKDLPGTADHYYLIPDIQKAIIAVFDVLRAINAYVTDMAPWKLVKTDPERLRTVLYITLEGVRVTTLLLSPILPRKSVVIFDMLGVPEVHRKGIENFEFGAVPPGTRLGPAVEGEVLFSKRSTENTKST
The class given is functional, Trypanosoma brucei brucei strain 927/4 GUTat10.1.

For assay [12], the target named is T7, Methionyl-tRNA synthetase, putative. The assay is classed as functional, Trypanosoma brucei brucei strain 927/4 GUTat10.1. The source holds these as a separate data set.
The nature of assay [13]: Counterscreen for inhibitors of Trypanosoma brucei methionyl tRNA synthetase (MetRS): Luminescence-based cell-based high throughput dose response assay to identify compounds that are cytotoxic to Jurkat human T lymphocyte cells. The class given is functional.
Assay [14] has as its target Photoreceptor-specific nuclear receptor (Homo sapiens, UniProt Q9Y5X4). The class given is functional, cell-based.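 Note: CHO-S cells with Gal4-NCOR and VP16-NR2E3 two-hybrid luciferase reporter.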
The target of assay [15] is FAD-linked sulfhydryl oxidase ALR (Homo sapiens, UniProt P55789). Kind of assay: ALR-catalysed DTT oxidation blockers – biochemical, H2O2 detection, luminescence, cherry-pick, dose response (AID 493248).
Chain of FAD-linked sulfhydryl oxidase ALR (P55789 whole entry): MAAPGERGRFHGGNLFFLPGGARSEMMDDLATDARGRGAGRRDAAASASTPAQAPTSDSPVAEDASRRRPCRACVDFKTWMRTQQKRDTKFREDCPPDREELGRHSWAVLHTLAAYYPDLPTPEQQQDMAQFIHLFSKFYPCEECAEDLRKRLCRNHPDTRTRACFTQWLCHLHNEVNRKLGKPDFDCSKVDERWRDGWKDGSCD

Structures are written as SMILES. Calls of active or inactive are those of the source.

Chain of Beta-galactosidase (Q8VNN2 whole entry): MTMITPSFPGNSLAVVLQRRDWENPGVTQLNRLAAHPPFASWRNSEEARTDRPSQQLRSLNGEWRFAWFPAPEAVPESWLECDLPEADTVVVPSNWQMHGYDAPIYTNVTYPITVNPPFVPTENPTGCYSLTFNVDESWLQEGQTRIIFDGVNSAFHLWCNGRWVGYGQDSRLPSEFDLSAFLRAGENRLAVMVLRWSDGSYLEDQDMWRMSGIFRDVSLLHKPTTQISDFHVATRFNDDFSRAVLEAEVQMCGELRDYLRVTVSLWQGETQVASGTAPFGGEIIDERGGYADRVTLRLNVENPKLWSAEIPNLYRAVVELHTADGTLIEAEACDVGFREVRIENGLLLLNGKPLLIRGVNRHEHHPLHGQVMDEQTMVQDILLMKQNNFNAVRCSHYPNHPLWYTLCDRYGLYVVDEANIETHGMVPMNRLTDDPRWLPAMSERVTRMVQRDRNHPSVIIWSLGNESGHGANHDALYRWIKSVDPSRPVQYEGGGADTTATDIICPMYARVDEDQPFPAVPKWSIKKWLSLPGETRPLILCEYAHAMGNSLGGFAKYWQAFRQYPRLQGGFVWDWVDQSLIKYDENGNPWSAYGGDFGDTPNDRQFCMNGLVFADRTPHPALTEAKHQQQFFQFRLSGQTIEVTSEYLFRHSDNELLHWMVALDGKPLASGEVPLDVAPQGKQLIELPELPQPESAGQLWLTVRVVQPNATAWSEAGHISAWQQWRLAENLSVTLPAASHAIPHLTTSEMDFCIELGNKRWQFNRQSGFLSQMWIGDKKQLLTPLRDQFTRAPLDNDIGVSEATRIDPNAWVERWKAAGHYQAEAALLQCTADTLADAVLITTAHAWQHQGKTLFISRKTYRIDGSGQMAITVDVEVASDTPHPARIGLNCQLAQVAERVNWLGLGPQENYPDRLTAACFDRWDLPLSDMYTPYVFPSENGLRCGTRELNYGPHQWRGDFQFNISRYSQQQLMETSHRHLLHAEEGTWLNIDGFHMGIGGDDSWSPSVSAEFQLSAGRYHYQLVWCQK
Chain of Photoreceptor-specific nuclear receptor (Q9Y5X4 whole entry, the tested form may be a part): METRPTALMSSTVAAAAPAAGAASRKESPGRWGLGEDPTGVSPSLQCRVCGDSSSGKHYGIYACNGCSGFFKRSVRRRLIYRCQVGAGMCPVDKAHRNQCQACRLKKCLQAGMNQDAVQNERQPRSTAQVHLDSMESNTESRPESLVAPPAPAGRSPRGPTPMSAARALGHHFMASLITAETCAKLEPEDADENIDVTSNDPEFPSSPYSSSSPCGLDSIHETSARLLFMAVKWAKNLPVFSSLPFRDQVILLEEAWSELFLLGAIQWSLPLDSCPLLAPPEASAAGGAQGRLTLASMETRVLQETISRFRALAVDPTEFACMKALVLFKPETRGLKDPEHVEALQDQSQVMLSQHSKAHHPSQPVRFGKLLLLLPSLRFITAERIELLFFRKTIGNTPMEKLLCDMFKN

Turning to `COc1ccc(N=C2C(=O)Nc3ccc(C)c(Br)c32)cc1`, in assay [1], the IC50 is 3.94 µM (active). For the same molecule, the EC50 at Beta-galactosidase is > 40 µM (inactive).

Consider `O=C(Nc1ccc(O)c(-c2nc3ccccc3s2)c1)c1cc(=O)c2ccccc2o1`, for which the IC50 in [2] is 5.27 µM (active).

For `COc1cc(S(=O)(=O)Nc2cc(C)cc(C)c2)ccc1F`, the AC50 in the assay with Escherichia coli was 64.9 µM (active).

Consider `O=C(C[N+]1(CC#Cc2ccccc2)CCOCC1)c1ccc(Cl)cc1`, for which the IC50 in [1] was 39.4 µM (not active). Besides, the EC50 on Beta-galactosidase is > 40 µM (inactive).

Turning to `CC(C)(C)c1ccc(C(=O)n2cnc3ccccc32)cc1`, in the assay with Escherichia coli, the concentration at half-maximal activity (AC50) was 33.1 µM (active).

Turning to `COc1cc(Nc2ccc(C(=O)O)cc2[N+](=O)[O-])cc(OC)c1`, the EC50 in assay [3] was > 104 µM (inactive).

Consider `CCOC(=O)CSC1=NC(=O)/C(=C\c2ccc(OC(C)=O)cc2)S1`, for which the concentration giving a half-maximal response (EC50) in [4] was 8.97 µM (active); in [5], > 99 µM (inactive); in assay [6], 10.4 µM (active); in assay [8] it was > 99 µM (inactive); in the assay with H4, 10.5 µM (active). Besides, the IC50 in assay [7] was 35.2 µM (active). Also, the figures for the AC50 (at Cytochrome P450 3A4; in assay [9]; in assay [10]) were 14.1 µM (inconclusive), 5.12 µM (active) and 0.216 µM (active), respectively.

On to `Cc1nc2ccccc2c(=O)n1CCCO`, for which the half-maximal activity concentration (AC50) in the assay with Escherichia coli is 27.2 µM (active).

Turning to `O=C(COC(=O)c1ccc([N+](=O)[O-])s1)NC(c1ccccc1)c1ccccc1`, the EC50 in [3] is 32.8 µM (inactive).

For the molecule `Cc1cc2ncn(CCOc3ccccc3)c2cc1C`, the results for the half-maximal effective concentration (EC50) (in [4]; in assay [6]; in the assay on H4) were 19.4 µM (active), 39 µM (active) and 38.8 µM (active), respectively. Moreover, in the assay on Escherichia coli, the AC50 was 41.4 µM (active).

In the case of `O=C(Cc1ccc(S(=O)(=O)N2CCOCC2)s1)Nc1ccc(Br)c(C(F)(F)F)c1`, the IC50 in assay [11] is 20.9 µM (inactive); in assay [12], 19.2 µM (inactive); in [13], 46.7 µM (inactive).

`CC(=O)Nc1ccc(S(=O)(=O)N2CCN=C2SCc2ccc([N+](=O)[O-])cc2)cc1`: the IC50 in assay [14] was 2.82 µM (active). For the same molecule, the AC50 in assay [15] was 0.252 µM (active).

Take `O=C(CNc1cccc(Cl)c1)c1ccc(Cl)cc1`: the IC50 in assay [1] was 5.07 µM (active). Moreover, on Beta-galactosidase, the EC50 is > 40 µM (inactive).

For `Cc1ccc(SCCC(=O)N/N=C/c2cccnc2)cc1`, the IC50 was 25.9 µM (inactive) in [11], 29.2 µM (inactive) in assay [12] and 83.3 µM (inactive) in [13].

`O=C(O)c1cn(C2CC2)c2cc(N3CCN(S(=O)(=O)c4ccc5c(c4)OCCO5)CC3)c(F)cc2c1=O`: the IC50 in [2] is 2.89 µM (active).

`Cc1ccc(/N=C2\C(=O)Nc3ccccc32)cc1`: the IC50 in assay [1] is > 40 µM (not active). Further, at Beta-galactosidase, the EC50 was > 40 µM (inactive).

One may read the EC50 as the concentration giving half of the maximal effect. Usually AC50 stands for the concentration giving half of the maximal activity seen.

For the origin of these results see ChEMBL document CHEMBL1201862, “PubChem BioAssay data set” (2004).
